We go through three compounds from US20260345547A1, “USE OF DIHYDROQUERCETIN IN TREATING OCULAR SURFACE DISEASES” (HE UNIVERSITY SCHOOL OF CLINICAL MEDICINE, priority 2022, published 2026).

For series [1], the system named is HCE cells (H2O2-induced oxidative damage). As to the kind of experiment: MTS assay: anti-oxidative damage effect on HCE cells with H2O2-induced damage. In kind it is cell-based, human. Here is the method:
(§1) Human corneal epithelial cells were purchased from the American Type Culture Collection (ATCC). The cell medium used was high-sugar DMEM medium supplemented with 10% (V/V) fetal bovine serum, 100 U/mL penicillin, and 100 μg/mL gentamicin. The cells were cultured in an incubator containing 5% carbon dioxide at 37° C. Cells in the logarithmic growth phase were seeded into a 96-well plate at a density of 1.5×10^5 cells/mL, with 100 μL per well and 6 replicate wells per group. The cells were grouped into a normal cell group, a hydrogen peroxide model group, and intervention groups treated with dihydroquercetin at various concentrations. The assay was performed using an MTS kit (e.g., Promega), and absorbance was measured at 490 nm using a microplate reader.
(§2) Survival rate=survival rate of each group/survival rate of normal cell group×100%
Human corneal epithelial cells were purchased from the American Type Culture Collection (ATCC). The cell medium used was high-sugar DMEM medium supplemented with 10% (V/V) fetal bovine serum, 100 U/mL penicillin, and 100 μg/mL gentamicin. The cells were cultured in an incubator containing 5% carbon dioxide at 37° C. Cells in the logarithmic growth phase were seeded into a 96-well plate at a density of 1.5×10^5 cells/mL, with 100 μL per well and 6 replicate wells per group. After 24 h, the cells were treated with H2O2 or dihydroquercetin according to the experimental purpose. […] To measure the colorimetric results, the absorbance value of each well was read at the wavelength of 490 nm using an enzyme-linked immunosorbent assay reader. The results were recorded, and a cell growth curve was plotted with time as the abscissa and absorbance value as the ordinate.
The experiment included 8 groups: a normal control group, a H2O2 model group, and intervention groups treated with various concentrations of dihydroquercetin (0.1-200 μM)+H2O2. […] The survival rate of cells in each group was assessed by the MTS assay to evaluate the protective effect of dihydroquercetin against oxidative damage of HCE cells.
On the technique in general: Tetrazolium dyes change colour on reduction, which living cells bring about.

For series [2], the system named is human corneal epithelial (HCE) cells. Description: MTS assay: survival rate of HCE cells treated with H2O2 (damage model). It counts as cell-based. Conditions: 300 μM H2O2, 24 h, relative to normal cell group. As for the experimental part:
as §1, with “reader. […]” for “reader.”
Human corneal epithelial cells were purchased from the American Type Culture Collection (ATCC). […] To measure the colorimetric results, the absorbance value of each well was read at the wavelength of 490 nm using an enzyme-linked immunosorbent assay reader. The results were recorded, and a cell growth curve was plotted with time as the abscissa and absorbance value as the ordinate.
HCE cells were subcultured and seeded at 1.5×10^5 cells/mL, with 100 μL per well. […] To measure the colorimetric results, the absorbance value of each well was read at the wavelength of 490 nm using an enzyme-linked immunosorbent assay reader. […]

The subject of series [3] is mouse model of dry eye. Description: Tear secretion amount (phenol red cotton thread) in dry eye mice. It counts as in vivo, C57/BL6 mice. Conditions: 5 μL drops twice daily, ocular, day 14 of modeling, compared to model control group, P<0.001. The source says:
(§3) Out of 50 healthy 8-week-old female C57/BL6 mice, 30 were selected for the experiment. Five mice were randomly assigned to each group, resulting in a total of six groups: blank control group (N), model group (M), positive drug group (CsA), low concentration traditional Chinese medicine group (SL), medium concentration traditional Chinese medicine group (SM), and high concentration traditional Chinese medicine group (SH). During grouping, identification was marked on the mice's tails and cage cards, which included details such as the experiment name, experiment number, group designation, administration dosage, and administration schedule.
(§4) In this experiment, a mouse model of dry eye was established using an intelligent dry environment control system in combination with scopolamine injection. A two-step dehumidification method was used to control the humidity of the environment during the modeling process. Initially, a temperature-adjustable industrial dehumidifier was used to reduce the room humidity to 40%±5%. […]
The mice were restrained without anesthesia. […] The thread was then placed on a printable ruler, and the length of the red-stained portion was measured and recorded. The data were analyzed statistically using GraphPad Prism 8.0 software. […]

For series [4], the system named is mouse model of dry eye. Description: Tear film breakup time in dry eye mice. Conditions: treatment groups (0.03% and 0.3%), ocular; day 14 of modeling; compared to model control group, P<0.05. It counts as in vivo, C57/BL6 mice.
From the text: as §3, §4
The mice were restrained without anesthesia, and sodium fluorescein solution was instilled into their conjunctival sacs. […] The time until the appearance of a block spot due to tear film breakup was recorded. […] The data were analyzed statistically using GraphPad Prism 8.0 software. […]

The next series deals with HCE cells. Description: MTS assay: proliferative and toxic effects of dihydroquercetin on HCE cells. In kind it is cell-based, human. Conditions: 24 h; for cell viability of HCE cells: compared to control group. Here is the method: as §1, §2
Human corneal epithelial cells were purchased from the American Type Culture Collection (ATCC). The cell medium used was high-sugar DMEM medium supplemented with 10% (V/V) fetal bovine serum, 100 U/mL penicillin, and 100 μg/mL gentamicin. The cells were cultured in an incubator containing 5% carbon dioxide at 37° C. Cells in the logarithmic growth phase were seeded into a 96-well plate at a density of 1.5×10^5 cells/mL, with 100 μL per well and 6 replicate wells per group. After 24 h, the cells were treated with H2O2 or dihydroquercetin according to the experimental purpose. For color development, 20 μL of MTS solution was added to each well, and the cells were incubated for another 2-4 h. To measure the colorimetric results, the absorbance value of each well was read at the wavelength of 490 nm using an enzyme-linked immunosorbent assay reader. The results were recorded, and a cell growth curve was plotted with time as the abscissa and absorbance value as the ordinate.
Various concentrations of dihydroquercetin (0.01-600 μM) were applied to HCE cells, and 6 replicate wells were set for each group to ensure the reliability and accuracy of the experimental data. The proliferative effect of the drug on the cells was then assessed.

Series [5] concerns mouse model of dry eye. Description: Sodium fluorescein staining of cornea (corneal epithelial damage) in dry eye mice. It counts as in vivo, C57/BL6 mice. Conditions: day 14 of modeling.
From the text: as §3
In this experiment, a mouse model of dry eye was established using an intelligent dry environment control system in combination with scopolamine injection. A two-step dehumidification method was used to control the humidity of the environment during the modeling process. […]
The corneal morphology of experimental mice in each group was observed before modeling and 14 days after modeling. […] The sodium fluorescein-stained corneas of the mice were then illuminated with cobalt blue light, observed, imaged and recorded with a slit lamp. […] Sodium fluorescein residues on the corneal surface was scored and recorded. The data were analyzed statistically using GraphPad Prism 8.0 software.

Series [6] relates to corneal neovascularization model in rabbits. Description: Corneal neovascularization after corneal alkali burn in rabbits. In kind it is in vivo, New Zealand rabbits. Conditions: 50 μL twice daily, ocular, 14 days after treatment, compared to model group; for corneal neovascularization area: P<0.01. The source says:
[…] 3-month-old healthy New Zealand rabbits, half male and half female, were randomly assigned to six groups, with each group containing six rabbits. The groups were designated as blank control group (N), model control group (M), positive drug group (LEV), low concentration dihydroquercetin group (E1), high concentration dihydroquercetin group (E2) and solvent control group (R). Identification was marked on the rabbits' ears and cage cards, which included details such as the experiment name, experiment number, group designation, administration dosage, and administration schedule.
In this experiment, the corneal neovascularization model in rabbits was established using a chemical injury method. The rabbits were generally anesthetized with an intravenous injection of 1% pentobarbital sodium administered via the marginal ear vein. […] A 6 mm diameter filter paper was soaked in a 1 mol/L NaOH solution for 1 minute. The soaked filter paper was then applied to the center of the cornea for 30 seconds, after which it was removed. The ocular surface and conjunctival sac were subsequently rinsed with physiological saline for 1 minute. Following the modeling procedure, levofloxacin was applied as eye drops to the modeled eye to prevent postoperative infection.
The route of administration was ocular, and treatment commenced the day before modeling. No drug was administered to the blank control group or model control group. In the positive drug group, 50 μL of levofloxacin was applied to the conjunctival sac. In the low concentration group, 50 μL of a 0.03% dihydroquercetin solution was applied, while in the high concentration group, 50 μL of a 0.3% dihydroquercetin solution was applied. All treatments were administered twice daily at 9:00 a.m. and 3:00 p.m.
Fourteen days after treatment, ocular surface inflammation and neovascularization were assessed in each experimental group. The area of neovascularization was imaged, recorded, and subsequently quantified. Data were analyzed statistically using GraphPad Prism 8.0 software.

“And” between values parts separate entries of the source, which are not always exact repeats. Identical values can stand only once.

Turning to `OO` [H2O2, hydrogen peroxide, reference compound], the “cell survival rate, H2O2 model group” value in series [1] (300 μM H2O2, compared to control group, P<0.001) was “lower”. The viability (commonly the share of living cells, or the viability signal relative to a control) at 300 µM in series [2] is 49%.
Take `O=C1c2c(O)cc(O)cc2O[C@H](c2ccc(O)c(O)c2)[C@H]1O` [dihydroquercetin]: the “concentration offering protection against H2O2-induced oxidative stress damage in HCE cells” value in series [1] (300 μM H2O2, MTS assay) fell in the range of 25 to 200 µM. In addition, the “cell survival rate, dihydroquercetin + H2O2” value in series [1] (25-200 μM with 300 μM H2O2, compared to H2O2 model group, P<0.01) is “higher”. In addition, the tear secretion result in the series with mouse model of dry eye [3] (high concentration group (E2), 0.3%) is reported as “significantly increased”; in the series on mouse model of dry eye [3] (low concentration group (E1), 0.03%) it was “significantly increased”. The “tear film breakup time” value with mouse model of dry eye [4] was “increased significantly”. For the same compound, the “cell viability of HCE cells” value in the series on HCE cells (50 μM) is “significantly higher”; in the series with HCE cells (100 μM), “significantly higher”; in the series on HCE cells (200 μM), “significantly higher”; in the series on HCE cells (600 μM), “significantly reduced”. For the same compound, in the series on HCE cells (MTS assay), the “concentration that has a proliferation effect on HCE cells” value is 25 to 200 µM and 50 to 200 µM. In addition, in the series on HCE cells (MTS assay), the “concentration with toxic effect on HCE cells” value is 600 µM. The “sodium fluorescein staining of cornea (morphology)” value in the series on mouse model of dry eye [5] (compared to model control group) is reported as “significant reduction in staining”. For the same compound, in the series on mouse model of dry eye [5] (treatment groups (0.03% and 0.3%), ocular, compared to model group, P<0.001), the “corneal epithelial damage score, sodium fluorescein staining” value was “significant reduction in damage”. In addition, the “new blood vessels (slit lamp morphology)” value is “fewer new blood vessels” in series [6] (high concentration, 0.3%) and “fewer new blood vessels” in series [6] (low concentration, 0.03%). Further, the corneal neovascularization area result in series [6] (high concentration, 0.3%) is reported as “smaller”; in series [6] (low concentration, 0.03%) it was “smaller”.
On to `C[C@H]1COc2c(N3CCN(C)CC3)c(F)cc3c(=O)c(C(=O)O)cn1c23` [levofloxacin, reference compound], for which, in series [6], the “new blood vessels (slit lamp morphology)” value is “fewer new blood vessels” and the corneal neovascularization area result is reported as “smaller”.
